Target: T1, BRM (Homo sapiens, UniProt P51531)
T1 construct: In-Cell Western Screen of BRM Degradation in SW1573 Cells; endogenous in cells; host or cells: SW1573
Assay: In-cell Western screen of BRM degradation in SW1573 cells (Dmax and DC50)
Format: cell-based
Details: for Dmax: SW1573, % degraded, when tested at the top concentration of between 0.3 and 10 μM, read-out: BRM Dmax (%); for DC50: target protein degradation, read-out: BRM DC50
In short: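 SW1573, overnight cpd exposure (18-20 h), 0.1% DMSO final. PFA fix, 0.5% Triton permeabilization, block; IR secondaries at 800/680 nm. Odyssey read → Dmax, DC50.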

T1 sequence (P51531 whole entry): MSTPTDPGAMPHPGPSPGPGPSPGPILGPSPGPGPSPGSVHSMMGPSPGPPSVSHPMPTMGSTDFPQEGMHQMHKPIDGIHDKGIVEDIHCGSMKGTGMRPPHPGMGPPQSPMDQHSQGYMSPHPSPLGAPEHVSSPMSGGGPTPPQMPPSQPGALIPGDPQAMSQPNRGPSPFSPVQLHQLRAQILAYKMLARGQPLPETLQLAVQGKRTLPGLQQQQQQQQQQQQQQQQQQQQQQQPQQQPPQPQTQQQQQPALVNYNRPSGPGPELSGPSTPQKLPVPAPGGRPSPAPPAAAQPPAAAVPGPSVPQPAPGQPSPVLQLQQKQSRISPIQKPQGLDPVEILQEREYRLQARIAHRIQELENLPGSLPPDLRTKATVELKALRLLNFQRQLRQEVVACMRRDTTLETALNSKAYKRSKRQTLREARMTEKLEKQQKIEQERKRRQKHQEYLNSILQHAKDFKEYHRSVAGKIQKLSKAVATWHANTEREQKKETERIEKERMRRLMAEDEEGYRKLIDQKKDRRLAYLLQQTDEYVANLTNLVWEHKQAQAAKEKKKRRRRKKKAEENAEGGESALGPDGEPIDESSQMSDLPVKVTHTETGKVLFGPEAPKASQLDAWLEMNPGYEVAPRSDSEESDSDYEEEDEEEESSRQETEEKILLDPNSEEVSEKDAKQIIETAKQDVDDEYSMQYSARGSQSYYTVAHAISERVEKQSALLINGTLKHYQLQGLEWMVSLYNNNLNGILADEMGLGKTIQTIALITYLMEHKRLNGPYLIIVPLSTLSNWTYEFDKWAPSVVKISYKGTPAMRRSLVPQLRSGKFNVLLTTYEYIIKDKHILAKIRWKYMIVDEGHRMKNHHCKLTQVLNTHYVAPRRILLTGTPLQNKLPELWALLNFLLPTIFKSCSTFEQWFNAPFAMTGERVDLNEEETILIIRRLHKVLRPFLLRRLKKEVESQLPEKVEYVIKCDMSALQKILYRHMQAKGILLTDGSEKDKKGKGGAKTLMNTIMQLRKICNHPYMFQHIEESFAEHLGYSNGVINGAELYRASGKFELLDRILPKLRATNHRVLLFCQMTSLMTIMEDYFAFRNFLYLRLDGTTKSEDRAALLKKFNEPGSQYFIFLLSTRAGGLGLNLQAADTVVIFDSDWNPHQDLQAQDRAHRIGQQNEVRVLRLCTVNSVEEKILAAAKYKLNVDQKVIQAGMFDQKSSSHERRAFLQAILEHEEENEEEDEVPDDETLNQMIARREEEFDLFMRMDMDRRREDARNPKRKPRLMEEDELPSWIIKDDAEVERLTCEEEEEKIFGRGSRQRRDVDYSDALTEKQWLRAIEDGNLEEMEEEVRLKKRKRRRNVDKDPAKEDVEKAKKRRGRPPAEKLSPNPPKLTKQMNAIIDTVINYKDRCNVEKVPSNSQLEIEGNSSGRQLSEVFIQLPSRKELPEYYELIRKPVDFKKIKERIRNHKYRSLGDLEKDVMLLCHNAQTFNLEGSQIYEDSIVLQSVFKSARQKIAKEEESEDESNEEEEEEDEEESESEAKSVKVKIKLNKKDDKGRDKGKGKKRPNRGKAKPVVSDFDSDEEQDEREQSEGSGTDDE

`Cc1ncsc1-c1ccc([C@H](C)NC(=O)[C@@H]2C[C@@H](O)CN2C(=O)[C@@H](c2cc(OCCN3CCC(O[C@H]4C[C@H](Oc5cccc(N6C7CCC6CN(c6cc(-c8ccccc8O)nnc6N)C7)c5)C4)CC3)no2)C(C)C)cc1` [compound 462, (2S,4R)-1-((2R)-2-(3-(2-(4-((1r,3R)-3-(3-(3-(3-amino-6-(2-hydroxyphenyl)pyridazin-4-yl)-3,8-diazabicyclo[3.2.1]octan-8-yl)phenoxy)cyclobutoxy)piperidin-1-yl)ethoxy)isoxazol-5-yl)-3-methylbutanoyl)-4-hydroxy-N-((S)-1-(4-(4-methylthiazol-5-yl)phenyl)ethyl)pyrrolidine-2-carboxamide] gave a Dmax of over 75% and a DC50 of under 2.5 nM.
`Cc1ncsc1-c1ccc([C@H](C)NC(=O)[C@@H]2C[C@@H](O)CN2C(=O)[C@H](c2cc(OCCN3CCC(O[C@H]4C[C@H](Oc5nccc(N6C7CCC6CN(c6cc(-c8ccccc8O)nnc6N)C7)n5)C4)CC3)no2)C(C)C)cc1` [compound 463, (2S,4R)-1-((2S)-2-(3-(2-(4-((1r,3S)-3-((4-(3-(3-amino-6-(2-hydroxyphenyl)pyridazin-4-yl)-3,8-diazabicyclo[3.2.1]octan-8-yl)pyrimidin-2-yl)oxy)cyclobutoxy)piperidin-1-yl)ethoxy)isoxazol-5-yl)-3-methylbutanoyl)-4-hydroxy-N-((S)-1-(4-(4-methylthiazol-5-yl)phenyl)ethyl)pyrrolidine-2-carboxamide] showed a DC50 of over 30 nM.
For `Cc1ncsc1-c1ccc([C@H](C)NC(=O)[C@@H]2C[C@@H](O)CN2C(=O)[C@@H](c2cc(OCCN3CCC(O[C@H]4C[C@H](Oc5nccc(N6C7CCC6CN(c6cc(-c8ccccc8O)nnc6N)C7)n5)C4)CC3)no2)C(C)C)cc1` [compound 464, (2S,4R)-1-((2R)-2-(3-(2-(4-((1r,3R)-3-((4-(3-(3-amino-6-(2-hydroxyphenyl)pyridazin-4-yl)-3,8-diazabicyclo[3.2.1]octan-8-yl)pyrimidin-2-yl)oxy)cyclobutoxy)piperidin-1-yl)ethoxy)isoxazol-5-yl)-3-methylbutanoyl)-4-hydroxy-N-((S)-1-(4-(4-methylthiazol-5-yl)phenyl)ethyl)pyrrolidine-2-carboxamide], the Dmax was over 75% and the DC50 was under 2.5 nM.
`Cc1ncsc1-c1ccc([C@H](C)NC(=O)[C@@H]2C[C@@H](O)CN2C(=O)[C@H](c2cc(OCCC3CCN(C(=O)[C@H]4C[C@@H](CN5CCC(n6cc(-c7cc(-c8ccccc8O)nnc7N)cn6)CC5)C4)CC3)no2)C(C)C)cc1` [compound 465, (2S,4R)-1-((S)-2-(3-(2-(1-((1s,3R)-3-((4-(4-(3-amino-6-(2-hydroxyphenyl)pyridazin-4-yl)-1H-pyrazol-1-yl)piperidin-1-yl)methyl)cyclobutane-1-carbonyl)piperidin-4-yl)ethoxy)isoxazol-5-yl)-3-methylbutanoyl)-4-hydroxy-N-((S)-1-(4-(4-methylthiazol-5-yl)phenyl)ethyl)pyrrolidine-2-carboxamide] showed a Dmax of over 75% and a DC50 of under 2.5 nM.
`Cc1ncsc1-c1ccc([C@H](C)NC(=O)[C@@H]2C[C@@H](O)CN2C(=O)[C@@H](c2cc(OCCC3CCN(C(=O)[C@H]4C[C@@H](CN5CCC(n6cc(-c7cc(-c8ccccc8O)nnc7N)cn6)CC5)C4)CC3)no2)C(C)C)cc1` [compound 466, (2S,4R)-1-((R)-2-(3-(2-(1-((1s,3S)-3-((4-(4-(3-amino-6-(2-hydroxyphenyl)pyridazin-4-yl)-1H-pyrazol-1-yl)piperidin-1-yl)methyl)cyclobutane-1-carbonyl)piperidin-4-yl)ethoxy)isoxazol-5-yl)-3-methylbutanoyl)-4-hydroxy-N-((S)-1-(4-(4-methylthiazol-5-yl)phenyl)ethyl)pyrrolidine-2-carboxamide] showed a DC50 of over 30 nM.
Molecule `Cc1ncsc1-c1ccc([C@H](C)NC(=O)[C@@H]2C[C@@H](O)CN2C(=O)[C@H](c2cc(OCCC3CCN(C(=O)[C@H]4C[C@H](CN5CCC(n6cc(-c7cc(-c8ccccc8O)nnc7N)cn6)CC5)C4)CC3)no2)C(C)C)cc1` [compound 467, (2S,4R)-1-((S)-2-(3-(2-(1-((1r,3S)-3-((4-(4-(3-amino-6-(2-hydroxyphenyl)pyridazin-4-yl)-1H-pyrazol-1-yl)piperidin-1-yl)methyl)cyclobutane-1-carbonyl)piperidin-4-yl)ethoxy)isoxazol-5-yl)-3-methylbutanoyl)-4-hydroxy-N-((S)-1-(4-(4-methylthiazol-5-yl)phenyl)ethyl)pyrrolidine-2-carboxamide] has a Dmax of over 75% and a DC50 of under 2.5 nM.
`Cc1ncsc1-c1ccc([C@H](C)NC(=O)[C@@H]2C[C@@H](O)CN2C(=O)[C@@H](c2cc(OCCC3CCN(C(=O)[C@H]4C[C@H](CN5CCC(n6cc(-c7cc(-c8ccccc8O)nnc7N)cn6)CC5)C4)CC3)no2)C(C)C)cc1` [compound 468, (2S,4R)-1-((R)-2-(3-(2-(1-((1r,3R)-3-((4-(4-(3-amino-6-(2-hydroxyphenyl)pyridazin-4-yl)-1H-pyrazol-1-yl)piperidin-1-yl)methyl)cyclobutane-1-carbonyl)piperidin-4-yl)ethoxy)isoxazol-5-yl)-3-methylbutanoyl)-4-hydroxy-N-((S)-1-(4-(4-methylthiazol-5-yl)phenyl)ethyl)pyrrolidine-2-carboxamide] showed a DC50 of over 30 nM.
In the case of `Cc1ncsc1-c1ccc([C@H](C)NC(=O)[C@@H]2C[C@@H](O)CN2C(=O)[C@H](c2cc(N3CCC(OC4CCN(C[C@H]5C[C@H](Oc6cc(N7C8CCC7CN(c7cc(-c9ccccc9O)nnc7N)C8)ccn6)C5)CC4)CC3)no2)C(C)C)cc1` [compound 469, (2S,4R)-1-((2S)-2-(3-(4-((1-(((1r,3r)-3-((4-(3-(3-amino-6-(2-hydroxyphenyl)pyridazin-4-yl)-3,8-diazabicyclo[3.2.1]octan-8-yl)pyridin-2-yl)oxy)cyclobutyl)methyl)piperidin-4-yl)oxy)piperidin-1-yl)isoxazol-5-yl)-3-methylbutanoyl)-4-hydroxy-N-((S)-1-(4-(4-methylthiazol-5-yl)phenyl)ethyl)pyrrolidine-2-carboxamide], the DC50 is reported as over 30 nM.
In the case of `Cc1ncsc1-c1ccc([C@H](C)NC(=O)[C@@H]2C[C@@H](O)CN2C(=O)[C@H](c2cc(OCCN3CCC(O[C@H]4C[C@H](Oc5cnnc(N6C7CCC6CN(c6cc(-c8ccccc8O)nnc6N)C7)c5)C4)CC3)no2)C(C)C)cc1` [compound 470, (2S,4R)-1-((2S)-2-(3-(2-(4-((1r,3S)-3-((6-(3-(3-amino-6-(2-hydroxyphenyl)pyridazin-4-yl)-3,8-diazabicyclo[3.2.1]octan-8-yl)pyridazin-4-yl)oxy)cyclobutoxy)piperidin-1-yl)ethoxy)isoxazol-5-yl)-3-methylbutanoyl)-4-hydroxy-N-((S)-1-(4-(4-methylthiazol-5-yl)phenyl)ethyl)pyrrolidine-2-carboxamide], the DC50 is reported as over 30 nM.
With `Cc1ncsc1-c1ccc([C@H](C)NC(=O)[C@@H]2C[C@@H](O)CN2C(=O)[C@@H](c2cc(OCCN3CCC(O[C@H]4C[C@H](Oc5cnnc(N6C7CCC6CN(c6cc(-c8ccccc8O)nnc6N)C7)c5)C4)CC3)no2)C(C)C)cc1` [compound 471, (2S,4R)-1-((2R)-2-(3-(2-(4-((1r,3R)-3-((6-(3-(3-amino-6-(2-hydroxyphenyl)pyridazin-4-yl)-3,8-diazabicyclo[3.2.1]octan-8-yl)pyridazin-4-yl)oxy)cyclobutoxy)piperidin-1-yl)ethoxy)isoxazol-5-yl)-3-methylbutanoyl)-4-hydroxy-N-((S)-1-(4-(4-methylthiazol-5-yl)phenyl)ethyl)pyrrolidine-2-carboxamide] the Dmax was over 75% and the DC50 was under 2.5 nM.
Molecule `Cc1ncsc1-c1ccc([C@H](C)NC(=O)[C@@H]2C[C@@H](O)CN2C(=O)[C@H](c2cc(N3CCC(CC4CCN(C[C@H]5C[C@H](Oc6cc(N7C8CCC7CN(c7cc(-c9ccccc9O)nnc7N)C8)ccn6)C5)CC4)CC3)no2)C(C)C)cc1` [compound 472, (2S,4R)-1-((2S)-2-(3-(4-((1-(((1r,3r)-3-((4-(3-(3-amino-6-(2-hydroxyphenyl)pyridazin-4-yl)-3,8-diazabicyclo[3.2.1]octan-8-yl)pyridin-2-yl)oxy)cyclobutyl)methyl)piperidin-4-yl)methyl)piperidin-1-yl)isoxazol-5-yl)-3-methylbutanoyl)-4-hydroxy-N-((S)-1-(4-(4-methylthiazol-5-yl)phenyl)ethyl)pyrrolidine-2-carboxamide] has a DC50 of over 30 nM.
`Cc1ncsc1-c1ccc([C@H](C)NC(=O)[C@@H]2C[C@@H](O)CN2C(=O)[C@@H](c2cc(N3CCC(CC4CCN(C[C@H]5C[C@H](Oc6cc(N7C8CCC7CN(c7cc(-c9ccccc9O)nnc7N)C8)ccn6)C5)CC4)CC3)no2)C(C)C)cc1` [compound 473, (2S,4R)-1-((2R)-2-(3-(4-((1-(((1r,3r)-3-((4-(3-(3-amino-6-(2-hydroxyphenyl)pyridazin-4-yl)-3,8-diazabicyclo[3.2.1]octan-8-yl)pyridin-2-yl)oxy)cyclobutyl)methyl)piperidin-4-yl)methyl)piperidin-1-yl)isoxazol-5-yl)-3-methylbutanoyl)-4-hydroxy-N-((S)-1-(4-(4-methylthiazol-5-yl)phenyl)ethyl)pyrrolidine-2-carboxamide] was tested, and the Dmax was over 75% and the DC50 was under 2.5 nM.
`Cc1ncsc1-c1ccc([C@H](C)NC(=O)[C@@H]2C[C@@H](O)CN2C(=O)[C@@H](c2cc(N3CCC(OC4CCN(C[C@H]5C[C@H](Oc6cc(N7C8CCC7CN(c7cc(-c9ccccc9O)nnc7N)C8)ccn6)C5)CC4)CC3)no2)C(C)C)cc1` [compound 474, (2S,4R)-1-((2R)-2-(3-(4-((1-(((1r,3r)-3-((4-(3-(3-amino-6-(2-hydroxyphenyl)pyridazin-4-yl)-3,8-diazabicyclo[3.2.1]octan-8-yl)pyridin-2-yl)oxy)cyclobutyl)methyl)piperidin-4-yl)oxy)piperidin-1-yl)isoxazol-5-yl)-3-methylbutanoyl)-4-hydroxy-N-((S)-1-(4-(4-methylthiazol-5-yl)phenyl)ethyl)pyrrolidine-2-carboxamide] was tested, and the Dmax was over 75% and the DC50 was under 2.5 nM.

From patent publication US12539292B2, “BRM targeting compounds and associated methods of use” (Arvinas Operations, Inc., priority 2018, dated 2026)
